Assay results from PubChem BioAssay (NCI).
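Five concentrations, 48 hours, 96-well plates. The concentration for 50% growth inhibition is given as GI50. TGI: total growth inhibition.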

Legend:
Experiment in all cases: growth of human tumour cells (NCI), 48 h
SK-MEL-2 melanoma = tested on: SK-MEL-2 melanoma
MCF7 breast = tested on: MCF7 breast
UACC-62 melanoma = tested on: UACC-62 melanoma
LOX IMVI melanoma = tested on: LOX IMVI melanoma
SNB-19 CNS = tested on: SNB-19 CNS
SK-MEL-28 melanoma = tested on: SK-MEL-28 melanoma
UO-31 renal = tested on: UO-31 renal
SK-OV-3 ovarian = tested on: SK-OV-3 ovarian
SR leukemia = tested on: SR leukemia
SK-MEL-5 melanoma = tested on: SK-MEL-5 melanoma

Row | Structure (SMILES) | GI50 (SK-MEL-2 melanoma) [µM] | TGI (SK-MEL-2 melanoma) [µM] | GI50 (MCF7 breast) [nM] | TGI (MCF7 breast) [µM] | GI50 (UACC-62 melanoma) [nM] | TGI (UACC-62 melanoma) [µM] | GI50 (LOX IMVI melanoma) [nM] | TGI (LOX IMVI melanoma) [µM] | GI50 (SNB-19 CNS) [µM] | TGI (SNB-19 CNS) [µM] | GI50 (SK-MEL-28 melanoma) [nM] | TGI (SK-MEL-28 melanoma) [µM] | GI50 (UO-31 renal) [nM] | TGI (UO-31 renal) [µM] | GI50 (SK-OV-3 ovarian) [µM] | TGI (SK-OV-3 ovarian) [µM] | GI50 (SR leukemia) [nM] | TGI (SR leukemia) [µM] | GI50 (SK-MEL-5 melanoma) [µM] | TGI (SK-MEL-5 melanoma) [µM]
1 | CC1(C)N=C(N)N=C(N)N1c1ccc(F)c(C(F)(F)F)c1 | > 27.9 | > 100 | 998 | > 100 | 2250 | > 100 | 400 | > 100 | 4.47 | > 100 | 15900 | > 100 | 8860 | > 100 | 10.7 | > 100 | 444 | > 100 | 3.04 | > 100
2 | ClCCN(CCCl)c1ccc(-n2cnc3c(Cl)ncnc32)cc1 | 14 | 27.6 | 3680 | 15.1 | 1810 | 3.35 | 2000 | 4.09 | 5.4 | 17.4 | 1940 | 3.64 | 1700 | 3.34 | 11 | 22.9 | 2060 | 6.55 | 2.36 | 5.94
3 | Cn1c(COC(=O)N2CCCCC2)nc2c(N3CCOCC3)nc(-c3ccccc3)nc21 | 1.64 | 3.25 | 378 | 1.79 | 1270 | 2.54 | 166 | 0.337 | 1.51 | 2.86 | 1520 | 2.86 | 260 | 1.45 | 2.64 | 10.5 | 287 | 2.34 | 1.47 | 2.79
4 | O=C1C=C(Nc2ccccc2C(=O)CC(=O)C(=O)Nc2cccc(C(F)(F)F)c2)c2ccccc2C1=O | – | 44.5 | – | 28.9 | – | 32.3 | – | 27.3 | – | > 100 | – | 54.8 | – | > 80.1 | – | > 100 | – | > 94.7 | – | 30.8
5 | CCC(Sc1nnc2c3ccccc3n(CC)c2n1)C(=O)Nc1ccccc1OC (stereo not given) | > 100 | > 100 | > 89900 | > 100 | > 100000 | > 100 | > 100000 | > 100 | > 100 | > 100 | > 100000 | > 100 | 2120 | 6.65 | > 100 | > 100 | > 100000 | > 100 | 60.8 | > 100
6 | COc1cccc(/C=N\Nc2ccc([N+](=O)[O-])cn2)c1O | 9.69 | 54.4 | 3180 | 71.1 | 2470 | 8.9 | 2580 | 14.6 | 3.13 | 27.8 | 19600 | > 100 | 1740 | 7.24 | 2.94 | 20.4 | 3030 | > 100 | 1.76 | 5.92
7 | C=C=C(C)[Si](C)(C)C | – | > 100 | – | > 100 | – | > 100 | – | > 100 | – | > 100 | – | > 100 | – | > 100 | – | > 100 | – | > 100 | – | > 100
8 | C1COC(NC(C2CC2)C2CC2)=N1 | – | > 100 | – | > 100 | – | > 100 | – | > 100 | – | > 100 | – | > 100 | – | > 100 | – | > 100 | – | > 100 | – | > 100
9 | O=C(COc1cccc(/C=C2\COc3ccccc3C2=O)c1)Nc1nccs1 | 1.88 | 5.05 | 1240 | 5.69 | 1690 | 3.76 | 1820 | 3.4 | 9.93 | 22.1 | 2420 | 5.44 | 1520 | 2.91 | 17.4 | 31.1 | 1030 | 2.76 | 5.27 | 19.5
10 | Nc1cc(-c2ccccc2)ccc1O | > 100 | > 100 | > 100000 | > 100 | 37300 | > 100 | 62900 | > 100 | > 100 | > 100 | > 100000 | > 100 | 34000 | > 100 | > 100 | > 100 | 33900 | > 100 | > 100 | > 100
11 | CCCCC(=O)N/N=C/c1cc(I)cc(I)c1O | 3.22 | 14.4 | 2720 | 14.6 | 2240 | 8.33 | 2620 | 13.4 | 3.43 | 35.6 | 2850 | 17.3 | 1280 | 11.1 | 3.4 | 20.7 | 1920 | 14.3 | 3.22 | 15.3
12 | O=S1(=O)CCN(Cc2ccccn2)CC1 | – | > 100 | – | > 100 | – | > 100 | – | > 100 | – | > 100 | – | > 100 | – | > 100 | – | > 100 | – | > 100 | – | > 100
13 | C(=C1c2ccccc2-c2ccccc21)c1ccccn1 | 12.7 | 43 | 2710 | 21.3 | 5800 | > 100 | 8520 | 25.8 | 14 | > 100 | 8120 | 73 | 8640 | 38.6 | 13.1 | 64.9 | 3760 | 38.3 | 11.5 | 26.5
14 | COc1ccc(O)c(C(=O)c2ccc(C(=O)O[C@@H]3CCCNC[C@H]3NC(=O)c3ccncc3)cc2)c1F | 0.89 | 16.6 | 275 | > 25 | 1510 | > 25 | 1190 | > 25 | 1.9 | > 25 | 2730 | > 25 | 375 | > 14 | 0.946 | > 25 | 146 | > 5.21 | 0.541 | 3.15
15 | CO[C@@H]1[C@@H](OC2OC(C)C(OC3CC(C)(O)C(OC(=O)CC(C)C)C(C)O3)C(N(C)C)C2O)[C@@H](CC=O)C[C@@H](C)C(=O)/C=C/C2O[C@H]2C[C@@H](C)OC(=O)C[C@H]1OC(C)=O (stereo not given in full) | – | 43.7 | – | 30.7 | – | 60.1 | – | 30.4 | – | 60.1 | – | 34.8 | – | 73.6 | – | > 100 | – | 42.4 | – | 32.9
